# Laboratory results reported in patent US5873359A, “Methods and devices for treating pulmonary vasoconstriction and asthma” (The General Hospital Corporation, priority 1994, dated 1999).
# Tests used:
# Stability of SNAP = type: physicochemical; conditions: crystals at 0° C., up to 120 days, absorbance at 595 nm
# Excerpt: Alternatively, a mammal (in particular, a human) with or at risk of developing bronchoconstriction (e.g., asthma) or reversible pulmonary vasoconstriction may be treated with a therapeutically-effective amount of a nitric oxide-releasing compound. Known nitric oxide-releasing compounds (also referred to as nitric oxide-donor or nitric oxide-generating compounds) useful in the methods and devices of the invention can be divided into three categories: (a) nitroso or nitrosyl compounds (e.g., S-nitroso-N-acetylpenicillamine, S-nitroso-L-cysteine, and nitrosoguanidine) characterized by an --NO moiety that is spontaneously released or otherwise transferred from the compound under physiological conditions such as obtain in the lung; (b) compounds in which NO is a ligand on a transition metal complex, and as such is readily released or transferred from the compound under physiological conditions (e.g., nitroprusside, NO-ferredoxin, or an NO-heme complex); and (c) nitrogen-containing compounds which are metabolized by enzymes endogenous to the respiratory and/or vascular system to produce the NO radical (e.g., arginine, glyceryl trinitrate, isoamyl nitrite, inorganic nitrite, azide, and hydroxylamine). […]
# [1] = test system: experimentally-elevated PA pressure; assay: SNAP inhalation in sheep with experimentally-elevated PA pressure; type: in vivo; conditions: inhalation 1.3 mg/kg
# Excerpt: This method will provide a longer-lasting beneficial effect than briefly inhaling gaseous NO, as the deposited NO-releasing compound would slowly release NO over a relatively long period of time. Formulation and dosage of a selected NO-releasing compound can be determined without undue experimentation by one of ordinary skill in the art. As one example, a typical single inhaled dose of an NO-releasing compound such as S-nitroso-N-acetylpenicillamine (SNAP) or S-nitrosocysteine in dry powder form could range from 60 to 650 μg of the active compound (NO) per kg bodyweight, for approximately an hour of dilation.
# [2] = test system: methacholine bronchoconstriction; assay: SNAP aerosol during methacholine bronchoconstriction; type: in vivo, Hartley strain guinea pigs; conditions: nebulized, 20 breaths, 5 guinea pigs (FIG. 16)
# Protocol: Male Hartley strain guinea pigs (300-440g body wt) were anesthetized with α-chloralose (50 mg/kg) and urethane (500 mg/kg) (Drazen et al., J. Appl. Physiol. 48:613-618, 1980). A tracheostomy was performed, and the animals were intubated with a tubing adaptor (ID 1.65 mm) and ventilated with a small animal ventilator (Harvard Apparatus, a division of Ealing Scientific, Natick, Mass.) at 8 ml/kg and 60 breaths/min. A jugular vein was cannulated for intravenous administration of drugs. The chest was opened by bilateral excision of a portion of the ribs anteriorly so that the lungs were exposed to atmospheric pressure (Shore and Drazen, J. Appl. Physiol. 67:2504-2511, 1989). A positive end expiratory pressure of 3-4 cmH2 O was provided.
# Guinea pigs were then placed inside a plethysmograph (Amdur and Mead, Am. J. Physiol. 192:363-368, 1958), that was connected to a large reservoir containing copper mesh to maintain the plethysmograph isothermal. Plethysmograph pressure was measured with a differential pressure transducer (Celesco, Canoga Park, Calif.); the opposite side of this transducer was connected to a similar reservoir. Pressure at the airway opening was measured from a side tap in the tracheal canula. Transpulmonary pressure was measured with a differential pressure transducer (Celesco) as the difference between airway opening pressure and the pressure inside the plethysmograph. […]
# [3] = cited from earlier work
compound,measurement,setting,value
"CC(=O)N[C@H](C(=O)O)C(C)(C)SN=O (racemic) [SNAP, S-nitroso-N-acetylpenicillamine]",degradation on storage,Stability of SNAP,without detectable degradation
same,PA pressure,[1],prolonged reduction in PA pressure
same,duration of reduction of lung resistance,[2],about 15 minutes
same,lung resistance,[2],prompt and profound reduction of lung resistance
same,stability of solid form,[3]; solid form,stable in its solid form
same,decomposition to release NO,[3]; under physiological conditions,readily decomposes to release NO
